Results on three compounds are retold here after patent publication US10258042B2, “Substituted pyrazolylpyrazole derivative and use of same as herbicide” (KYOYU AGRI CO., LTD., priority 2015, dated 2019).

Structures are written as SMILES.

Format in all cases: in vivo
Data set [1] relates to Chenopodium album. The experiment in a line: Farming soil treatment test. The settings on record: soil surface spray prior to weed growth, 30 days, 30° C. How it is done: (§1) Field soil was filled into a 1/6000 are pot followed by seeding with Digitaria ciliaris, Chenopodium album and Amaranthus retroflexus and covering with soil.
(§2) Wettable powders of compounds of formula (I) shown in Table 1 prepared in compliance with the preparation examples were diluted with water to the prescribed amount of chemical and uniformly sprayed onto each soil surface layer using 100 liters of sprayed water per 10 are prior to weed growth following seeding.
(§3) After treating for 30 days in a glass greenhouse at an average atmospheric temperature of 30° C., the herbicidal efficacy thereof was investigated.
(§4) Evaluation of herbicidal efficacy was carried out in the same manner as the above-mentioned Test Example 1,

Data set [2] deals with Amaranthus retroflexus. The experiment in a line: Farming soil treatment test. The settings on record: soil surface spray prior to weed growth, 30 days, 30° C. How it is done:
as §1, §2, §3, §4

Data set [3] deals with Digitaria ciliaris. The data set can be described thus: Farming soil treatment test. The settings on record: soil surface spray prior to weed growth, 30 days, 30° C. How it is done:
as §1, §2, §3, §4

For data set [4], the system named is Galinsoga parviflora. The data set can be described thus: Weed foliar treatment test (Test Example 4, higher leaf stage). The settings on record: 10 g a.i./10a; foliar spray at 4.0 to 5.0 leaf stage of Digitaria ciliaris; 20 days, 25° C. How it is done: (§5) Field soil was filled into a 1/4500 are pot followed by seeding with Digitaria ciliaris and Galinsoga parviflora, covering with soil and cultivating in a glass greenhouse at an average atmospheric temperature of 25° C.
(§6) Wettable powders of Target Compound (I) shown in Table 1 prepared in compliance with the preparation examples were diluted with water to the prescribed amount of chemical and uniformly sprayed onto the weeds using 100 liters of sprayed water per 10 are when Digitaria ciliaris had grown to the 4.0 to 5.0 leaf stage (plant height: 10 cm to 15 cm).
(§7) After treating for 20 days in a glass greenhouse at an average atmospheric temperature of 25° C., the herbicidal efficacy thereof was investigated.
(§8) Evaluation of herbicidal efficacy was carried out in the same manner as the above-mentioned Test Example 1.

In data set [5] the test system is Digitaria ciliaris. Described as above. The settings on record: 10 g a.i./10a; foliar spray at 4.0 to 5.0 leaf stage of Digitaria ciliaris (plant height 10 cm to 15 cm); 20 days, 25° C. How it is done: as §5, §6, §7, §8
In data set [6] the test system is Echinochloa crus-galli. The data set can be described thus: Paddy herbicidal activity test. To be noted: irrigated paddy pot, treated at 3.5 leaf stage of Echinochloa crus-galli, 30 days, 30° C. How it is done: (§9) Rice paddy soil was filled into a 1/10000 are pot followed by the addition of suitable amounts of water and chemical fertilizer, kneading, seeding with Echinochloa crus-galli, Monochoria vaginalis and Scirpus juncoides and maintaining in an irrigated state at a water depth of 3 cm.
(§10) Wettable powders of Target Compound (I) shown in Table 1 prepared in compliance with the preparation examples were diluted with a suitable amount of water, rice plants in the 2.0 leaf stage were transplanted during 3.5 leaf stage of Echinochloa crus-galli, and treated by dropping in chemical in the prescribed amount per 10 are using a pipette.
as §3
(§11) Evaluation of herbicidal efficacy was carried out by comparing growth inhibition rate (%) with an untreated group, while evaluation of phytotoxicity was carried out by comparing growth inhibition rate (%) with the state of a complete eradication group, and were evaluated at 11 levels indicated below.

The test system of data set [7] is Scirpus juncoides. The data set can be described thus: Paddy herbicidal activity test. To be noted: irrigated paddy pot, 30 days, 30° C. How it is done:
as §9, §10, §3, §11

Data set [8] deals with Monochoria vaginalis. The data set can be described thus: Paddy herbicidal activity test. To be noted: irrigated paddy pot, 30 days, 30° C. How it is done:
as §9, §10, §3, §11

The test system of data set [9] is Oryza sativa. The experiment in a line: Paddy herbicidal activity test, phytotoxicity to transplanted rice. To be noted: rice plants in the 2.0 leaf stage transplanted, 30 days, 30° C. How it is done:
as §9, §10, §3, §11

In data set [10] the test system is Chenopodium album. The data set can be described thus: Weed foliar treatment test (Test Example 3). The settings on record: foliar spray at 1.0 to 2.0 leaf stage of Digitaria ciliaris, 3 weeks, 25° C.; for herbicidal efficacy, Chenopodium alubum: 5 g a.i./10a; for herbicidal efficacy, Chenopodium album: 10 g a.i./10a. How it is done:
(§12) Soil was filled into a 1/6000 are pot followed by seeding with Digitaria ciliaris, Chenopodium album and Amaranthus retroflexus, covering with soil, and cultivating in a glass greenhouse at an average atmospheric temperature of 25° C.
(§13) Wettable powders of Target Compound (I) shown in Table 1 prepared in compliance with the preparation examples were diluted with water to the prescribed amount of chemical and uniformly sprayed onto the weeds using 150 liters of sprayed water per 10 are when Digitaria ciliaris had grown to the 1.0 to 2.0 leaf stage.
(§14) After treating for 3 weeks in a glass greenhouse at an average atmospheric temperature of 25° C., the herbicidal efficacy thereof was investigated.
as §8

The test system of data set [11] is Amaranthus retroflexus. The data set can be described thus: Weed foliar treatment test (Test Example 3). To be noted: foliar spray at 1.0 to 2.0 leaf stage of Digitaria ciliaris, 3 weeks, 25° C. How it is done:
as §12, §13, §14, §8

Data set [12] deals with Digitaria ciliaris. The experiment in a line: Weed foliar treatment test (Test Example 3). To be noted: foliar spray at 1.0 to 2.0 leaf stage of Digitaria ciliaris, 3 weeks, 25° C. How it is done: as §12, §13, §14, §8

For the compound `CCCC(=O)Nc1c(C#N)cnn1-c1nn2c(c1Cl)CCCC2` [Control agent 4.188, reference compound], the “herbicidal efficacy, Chenopodium album” value in data set [1] (5 g a.i./10a) is listed as 2 (2: 20% to less than 30%); in data set [1] (10 g a.i./10a), 3 (3: 30% to less than 40%); in data set [10], 5 (5: 50% to less than 60%). Also, the “herbicidal efficacy, Amaranthus retroflexus” value in [2] (5 g a.i./10a) was 4 (4: 40% to less than 50%); in data set [2] (10 g a.i./10a) it was 4 (4: 40% to less than 50%); in [11] (5 g a.i./10a), 4 (4: 40% to less than 50%); in data set [11] (10 g a.i./10a), 5 (5: 50% to less than 60%). The “herbicidal efficacy, Digitaria ciliaris” value in data set [3] (5 g a.i./10a) was 0 (0 (exponent): 0% to less than 10% (growth inhibition rate)); in [3] (10 g a.i./10a) it was 1 (1: 10% to less than 20%); in data set [5], 0 (0 (exponent): 0% to less than 10% (growth inhibition rate)); in data set [12] (5 g a.i./10a), 1 (1: 10% to less than 20%); in data set [12] (10 g a.i./10a) it was 2 (2: 20% to less than 30%). For the same compound, the “herbicidal efficacy, Galinsoga parviflora” value in [4] is 4 (4: 40% to less than 50%). Moreover, the “herbicidal efficacy, Echinochloa crus-galli” value is given as 2 (2: 20% to less than 30%) in data set [6] (1 g a.i./10a) and 3 (3: 30% to less than 40%) in data set [6] (5 g a.i./10a). The “herbicidal efficacy, Scirpus juncoides” value in [7] (1 g a.i./10a) was 0 (0 (exponent): 0% to less than 10% (growth inhibition rate)); in data set [7] (5 g a.i./10a) it was 1 (1: 10% to less than 20%). In addition, the “herbicidal efficacy, Monochoria vaginalis” value in data set [8] (1 g a.i./10a) and in [8] (5 g a.i./10a) was 3 (3: 30% to less than 40%) each time. Also, the “phytotoxicity, Oryza sativa” value in data set [9] (1 g a.i./10a) and in [9] (5 g a.i./10a) was 2 (2: 20% to less than 30%) throughout. Moreover, the “herbicidal efficacy, Chenopodium alubum” value in data set [10] is on record as 3 (3: 30% to less than 40%).

In the case of `CCCCC(=O)Nc1c(C#N)cnn1-c1nn2c(c1Cl)CCCC2` [Control agent 4.191, reference compound], the “herbicidal efficacy, Chenopodium album” value was 3 (3: 30% to less than 40%) in [1] (5 g a.i./10a), 3 (3: 30% to less than 40%) in [1] (10 g a.i./10a) and 2 (2: 20% to less than 30%) in [10]. Also, the “herbicidal efficacy, Amaranthus retroflexus” value in data set [2] (5 g a.i./10a) was 2 (2: 20% to less than 30%); in data set [2] (10 g a.i./10a) it was 3 (3: 30% to less than 40%); in data set [11] (5 g a.i./10a), 4 (4: 40% to less than 50%); in [11] (10 g a.i./10a), 5 (5: 50% to less than 60%). In addition, the “herbicidal efficacy, Digitaria ciliaris” value in data set [3] (5 g a.i./10a), in data set [3] (10 g a.i./10a), in data set [5], in data set [12] (5 g a.i./10a) and in data set [12] (10 g a.i./10a) was 0 (0 (exponent): 0% to less than 10% (growth inhibition rate)) each time. For the same compound, the “herbicidal efficacy, Galinsoga parviflora” value in data set [4] was 3 (3: 30% to less than 40%). For the same compound, the “herbicidal efficacy, Echinochloa crus-galli” value in data set [6] (1 g a.i./10a) and in [6] (5 g a.i./10a) was 2 (2: 20% to less than 30%) each time. The “herbicidal efficacy, Scirpus juncoides” value is reported as 0 (0 (exponent): 0% to less than 10% (growth inhibition rate)) in data set [7] (1 g a.i./10a) and 1 (1: 10% to less than 20%) in data set [7] (5 g a.i./10a). Besides, the “herbicidal efficacy, Monochoria vaginalis” value in [8] (1 g a.i./10a) and in data set [8] (5 g a.i./10a) was 2 (2: 20% to less than 30%) throughout. The “phytotoxicity, Oryza sativa” value in data set [9] (1 g a.i./10a) and in data set [9] (5 g a.i./10a) was 1 (1: 10% to less than 20%) in each case. The “herbicidal efficacy, Chenopodium alubum” value in data set [10] is given as 3 (3: 30% to less than 40%).

In the case of `N#Cc1cnn(-c2nn3c(c2Cl)CCCC3)c1NC(=O)CCCCl` [Control agent 1.37, reference compound], the “phytotoxicity, Oryza sativa” value in data set [9] (1 g a.i./10a) and in data set [9] (5 g a.i./10a) was 2 (2: 20% to less than 30%) in each case.
